Test results from article PMC5905120, “An innovative immunotherapeutic strategy for ovarian cancer: CLEC10A and glycomimetic peptides” (Journal for Immunotherapy of Cancer, 2018).
Bridges are numbered along the chain shown (N, C = ends). Roman numbers before positions name the chains, in order. Where no end group is shown, it is not given here.

Key:
human ASGPR-1 = molecular target: T1, human ASGPR-1 (Homo sapiens, UniProt P07306); experiment: Solid-phase binding to recombinant human ASGPR-1; conditions: Fig. 2a, representative of 3 independent experiments
T1 construct: purchased R&D Systems
T1 sequence (P07306 62-291 limits assumed): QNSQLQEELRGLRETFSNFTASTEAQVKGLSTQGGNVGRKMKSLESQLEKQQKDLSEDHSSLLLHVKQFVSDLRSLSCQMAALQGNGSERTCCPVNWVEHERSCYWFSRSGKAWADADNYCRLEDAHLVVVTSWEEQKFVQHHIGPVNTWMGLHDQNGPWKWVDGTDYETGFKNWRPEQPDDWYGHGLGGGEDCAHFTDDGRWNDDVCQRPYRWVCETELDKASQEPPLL
Protocol: (§1) Solid-phase binding assays were performed with streptavidin-, protein A/G-, or Nickel-coated microtiter plates (Pierce). His-tagged or Fc-fusion recombinant receptors (R&D Systems, Minneapolis, MN) were reconstituted in PBS. Sufficient receptors were added to wells to saturate the coating. His-tagged receptors were added to each well at a 5-fold excess over the stated capacity of the Ni coating to minimize non-specific binding of the peptide. Wells were washed three times with binding buffer (25 mM Tris HCl, pH 7.4, 150 mM NaCl, 0.05% Tween-20) to remove unbound receptor and 50 μL of 2 μM biotinylated peptide in binding buffer were added and allowed to incubate for 1 h. The wells were washed four times with binding buffer and then incubated with 50 μL of 1 μg/mL streptavidin conjugated with peroxidase (Sigma-Aldrich) for 1 h. The wells were washed five times with binding buffer and 50 μL of peroxidase substrate (1-Step™ Ultra TMB, Pierce) were added. After several minutes to allow color development, the reaction was stopped with 50 μL 1 M H3PO4 and absorbance was measured at 450 nm. Bound streptavidin was quantitated by the specific activity of peroxidase (absorbance/ng protein conjugate/min) under the conditions of the assay.
Solid-phase binding assays were performed with recombinant human receptors. Three variations of the binding assay were used in this study, all of which allowed the arms of the tetravalent peptide to have full flexibility. (i) Biotinylated peptide was bound in microtiter wells coated with streptavidin and incubated with recombinant human receptors. After extensive washing, the bound receptor was measured by peroxidase conjugated to a receptor-specific antibody. (ii) The extracellular domains of receptors, which were fused with the Fc domain of immunoglobulin IgG, were bound in wells coated with protein A/G. Biotinylated peptide was incubated with the receptors and, after extensive washing, bound peptide was measured with streptavidin conjugated with peroxidase. Or (iii), recombinant receptors with a poly-His tag were bound to Nickel-coated wells and incubated with biotinylated peptide. svL4 and sv6D contain His residues (see Table 1) and can bind to the Ni coating, which was minimized by adding sufficient poly-His-tagged receptor to saturate the Ni coating.

brain glioma = conditions: in combination with brief radiation; ref [48]; cited from earlier work
Excerpt: We asked whether the collective evidence of the role of ligands of CLEC10A, such as promoting DC maturation, T cell activation, and initiation of an immune response would coalesce into an effective anti-cancer therapy. To achieve this goal, the ligand should serve as a ‘trigger’ to initiate a cascade of events that will lead to activation of the immune system. Given that natural ligands of CLEC10A that contain GalNAc bind with low affinity and are antigenic, we considered whether a multivalent peptide mimetic of GalNAc would serve this purpose. We previously described ef ...

DC-SIGN = experiment: Solid-phase binding to DC-SIGN; set-up: species or system human; conditions: Fig. 2b
Protocol: as §1, with “The wells were washed five times with binding buffer and 50 μL of peroxidase substrate (1-Step™ Ultra TMB, Pierce) were added.” left out
Solid-phase binding assays were performed with recombinant human receptors. […] After extensive washing, the bound receptor was measured by peroxidase conjugated to a receptor-specific antibody. […]

[1] = tested on: peritoneal low FSc and low SSc cells; experiment: Peritoneal small-cell population in 4T1 tumor-bearing Balb/c mice; type: in vivo, mouse (Balb/c); conditions: 1 nmole/g
Protocol: After tumors had reached a volume of at least 500 mm^3, the peritoneal population of low FSc and low SSc cells was minimal (Fig. S2a). […] We conclude that this population is possibly progenitor cells and that additional treatments would lead to maturation of this population, as observed with healthy animals.
Fig. S2. Increase in the population of small cells in the peritoneal cavity of Balb/c mice bearing tumors of breast 4T1 cancer cell line. svL4 (1 nmole/g) was injected on day 0 and day 2, with analysis 24 h after each injection. a) Pseudocolor scatter plots of peritoneal cells from untreated or treated mice on day 3, 24 h after the second injection. […] Untreated animals, blue; treated animals, orange. Peritoneal cells from 3 animals were pooled and analyzed in triplicate. c) Histograms of normalized SSc vs. FSc for samples of peritoneal cells from Balb/c mice on day 3, from Fig. S2b, i.e., 24 h after the second injection of svL4. Blue trace, untreated animals; red trace, svL4-treated animals.

[2] = tested on: TREG cells within melanoma tumors; experiment: TREG cells in tumors of melanoma-bearing mice; type: in vivo, mouse; conditions: preliminary (data not shown)
[3] = tested on: serum cytokines/chemokines (mouse L-308 membrane array); type: in vivo; conditions: 0.1 nmole/g s.c., 4 h, three animals pooled
Protocol: At 4 h post dose, terminal blood was pooled from 3 animals per group and prepared for serum. Shown in Fig. S3 are the relative levels of cytokines/chemokines in sera in response to injections of 0.1 (orange bars) or 1.0 nmole/g (grey bars) svL4 as compared with animals injected with PBS (blue).

[4] = tested on: monocytes in the peritoneal cavity of RAG^—/— mice; experiment: Peritoneal monocyte response in RAG^—/— mice; type: in vivo, mouse (RAG^—/—); conditions: s.c. injection (data not shown)
Protocol: To determine whether the target(s) for svL4 is located on lymphocytes, with subsequent cross-talk signaling to achieve activation of monocytes, an experiment was performed in which svL4 was injected into RAG^—/— mice, which lack activity of rag, the recombination activation gene. The ability to perform recombination to generate antigen-specific antibodies by V(D)J recombination is required for B and T cell precursors to produce functional antigen receptors on their surface, and without a functional rag gene these cells undergo apoptosis.

[5] = * control value negligible or low

## I: VQATQSNQHTPRGGGSKK-NH2 / II: VQATQSNQHTPRGGGSK / III: VQATQSNQHTPRGGGS / IV: VQATQSNQHTPRGGGS (amide I:17-IV:C, I:18-II:C, II:17-III:C) [svL4]
Human ASGPR-1
  binding to ASGPR-1: also to ASGPR-1
Brain glioma
  efficacy in murine brain glioma model: efficacy
DC-SIGN
  binding to DC-SIGN: did not bind significantly
[1]; 24 h after first injection
  size of small-cell population: not changed significantly
[1]; after second injection
  CD3^+ fraction of small cells: 0.5%
  CD19^+ fraction of small cells: about 3%
[1]; within 24 h after second injection
  size of small-cell population: dramatic increase
[2]
  TREG cells within tumors: dramatic reduction in TREG cells
[3]
  ratio treated/untreated serum CCL1: 2.5
  ratio treated/untreated serum IL-1α: 2.7
  ratio treated/untreated serum IL-12p70: 3.5
  ratio treated/untreated serum IL-16: 4
  ratio treated/untreated serum IL-27: 4.5
  ratio treated/untreated serum IL-28: 4.3
  ratio treated/untreated serum IL-31: 3.5
  ratio treated/untreated serum Lymphotactin: ~ 3
  ratio treated/untreated serum MIP-2/CXCL2: ~ 6
  ratio treated/untreated serum Pentraxin3: ~ 4
  ratio treated/untreated serum SPARC: ~ 5
  ratio treated/untreated serum TIMP-2: 3
  ratio treated/untreated serum TLR2: 4.2
  ratio treated/untreated serum sHVEM: ~ 2
[3]; [5]
  ratio treated/untreated serum IFN-γ: High^*
  ratio treated/untreated serum Lymphotoxin-α: 12.5*
  ratio treated/untreated serum TNFα: 45*
[4]
  response of peritoneal monocytes vs. C57BL/6: essentially the same as that in C57BL/6 mice
